From patent US20260152724A1, “SMALL INTESTINE EPITHELIUM-LIKE CELLS AND PRODUCTION METHOD THEREOF” (OSAKA UNIVERSITY, priority 2022, published 2026)
Read-outs that look alike come from different tables or passages of the source. One block for each compound: values may come before it.

Key:
[1] = test system: CYP3A4; experiment: Elimination of a humoral factor from medium K in ELC monolayer culture, CYP3A4 activity (Example 9)
Experimental: (§1) Further, CYP3A4 activity was checked. The CYP3A4 activity was measured with P450-Glo™ CYP3A4 Assay Kits (Promega Corporation). […] The CYP3A4 activity was corrected by the amount of a protein per well measured with BCA Protein Assay Kit (Thermo Fisher Scientific Inc.).
This Example investigated an influence of a humoral factor in ELC monolayer culture. […] In this Example, culture was performed with addition of the medium to only an upper stage A in a cell culture insert (Corning Incorporated) used in monolayer culture (FIG. 9(1)).

[2] = test system: P-gp; experiment: Elimination of a humoral factor from medium K in ELC monolayer culture, P-gp activity (Example 9); type: cell-based, human; details: ELC monolayer (day 27 2D K), 6 days in medium K without the factor; digoxin substrate
Experimental: P-gp is an efflux transporter, and its activity was measured by allowing 1 μM digoxin to act through use of digoxin, [^3H (G)]-(PerkinElmer) and digoxin (Asahi Kasei Corporation) as substrate compounds, and allowing 100 μM verapamil to act as an inhibitor.

[3] = test system: definitive endoderm cells; experiment: Induction of differentiation from definitive endoderm cells into intestinal progenitor cells, marker gene expression by qRT-PCR (Example 1); type: cell-based, human; details: 4 days
Excerpt: This Example examined a differentiation-inducing action in a culture system containing each concentration of retinoic acid or a GSK3β inhibitor, which was known to be important in differentiation from definitive endoderm. To induce differentiation from definitive endoderm cells into intestinal progenitor cells, the medium B shown in Reference Example 2 was used as a basal medium.
Then, RNAs were recovered and analyzed for gene expression levels of an intestinal progenitor cell marker CDX2, a hepatic progenitor cell marker AFP, and a pancreatic progenitor cell marker PDX1 by quantitative RT-PCR (qRT-PCR). The quantitative RT-PCR was performed according to a common method. Total RNAS were recovered and CDNAS were synthesized. Complementary DNAs (cDNAs) were subjected to qRT-PCR with Fast SYBR Green Master Mix (Applied Biosystems) and quantification with StepOnePlus Real time PCR system (Applied Biosystems). A glyceraldehyde 3-phosphate dehydrogenase (GAPDH) gene was used as an internal standard gene. In addition, each gene expression level of DMSO-treated groups, which were controls, was set to 1.0. Data was shown with n=3, mean±standard deviation, but n=2 for each LY (10 nM and 30 nM). A detection limit was represented by N.D.

[4] = test system: CYP3A4; experiment: CYP3A4 activity of ELCs, P450-Glo CYP3A4 assay (Example 3); type: cell-based, human; details: PD 3 μM in medium C for 10 days, PD(+) versus PD(−); Luciferin-IPA substrate, corrected by protein per well
Experimental: as §1

[5] = test system: intestinal progenitor cells; experiment: MEK inhibitor in differentiation from intestinal progenitor cells into ELCs, gene expression by qRT-PCR (Example 3); type: cell-based, human; details: PD 3 μM in medium C for 10 days, PD(+) versus PD(−); Conditions 2 and 3
Experimental: This Example investigated the action of a MEK inhibitor in a stage of inducing differentiation from intestinal progenitor cells into enterocyte-like cells (ELCs). PD0325901 (MedChemExpress LLC) was used as the MEK inhibitor. PD0325901 is sometimes abbreviated as PD in this Example and Examples described below. In a step from definitive endoderm cells to intestinal progenitor cells, culture e was performed under Conditions 2 and 3 shown in Table 3 in Example 2 according to the protocol illustrated in FIG. 3(1). […] Thus, the cells were induced to differentiate into enterocyte-like cells (ELCs). Subsequently, RNAs were recovered by the same procedure as in Example 1, and analyzed for each gene expression level of VIL1, CYP3A4, and MDR1 by qRT-PCR by the same method as in Example 2. Each gene expression level in an adult small intestine was set to 1.0. Data was shown with n=3, mean±standard deviation.

[6] = RA at each concentration (3, 10, 20, 30 μM) in medium B, DMSO-treated group = 1.0

CYP3A4 activity on elimination of the factor from medium K [1]: significantly increased
Compound: NC(=O)c1ccc(-c2nc(-c3ccc4c(c3)OCO4)c(-c3ccccn3)[nH]2)cc1 [SB431542]

Compound: EGF: Epidermal growth factor, component of medium K
CYP3A4 activity on elimination of the factor from medium K [1]: significantly increased | P-gp activity on elimination of the factor from medium K [2]: no influence

Compound: Cc1c[nH]c(-c2cnc(NCCNc3ccc(C#N)cn3)nc2-c2ccc(Cl)cc2Cl)n1 [CHIR, CHIR99021]
expression of CDX2 ([3]; CHIR at 10 μM (of 3, 10, 20 μM) in medium B): highest expression | expression of AFP ([3]; CHIR at 10 μM in medium B): low expressions | expression of PDX1 ([3]; CHIR at 10 μM in medium B): low expressions

Compound: O=C1NC(=O)C(c2cnc3ccccn23)=C1c1cn2c3c(cc(F)cc13)CN(C(=O)N1CCCCC1)CC2 [LY, LY2090314]
expression of CDX2 ([3]; LY at 20 nM (of 3, 10, 20, 30 nM) in medium B): highest expression | expression of AFP (hepatic progenitor cell marker) ([3]; LY at 20 nM in medium B): low expressions | expression of PDX1 ([3]; LY at 20 nM in medium B): low expressions

Compound: C=C1/C(=C\C=C2/CCC[C@]3(C)[C@@H]([C@H](C)CCCC(C)(C)O)CC[C@@H]23)C[C@@H](O)C[C@@H]1O [Vitamin D3, 1α,25-Dihydroxyvitamin D3]
CYP3A4 activity on elimination of the factor from medium K ([1]; ELC monolayer (day 27 2D K), 6 days in medium K without the factor): greatly decreased

CYP3A4 activity [4]: clearly higher value | gene expression level of CYP3A4 [5]: clearly higher values | CYP3A4 activity on elimination of the factor from medium K [1]: greatly decreased
Compound: O=C(NOC[C@H](O)CO)c1ccc(F)c(F)c1Nc1ccc(I)cc1F [PD, PD0325901]
gene expression level of MDR1 [5]: clearly higher values

Compound: CC1=C(/C=C/C(C)=C/C=C/C(C)=C/C(=O)O)C(C)(C)CCC1 [RA, all-trans-Retinoic Acid]
expression level of CDX2 (intestinal progenitor cell marker) [3, 6]: high expression levels | expression level of PDX1 (pancreatic progenitor cell marker) [3, 6]: high expression levels
